Values of other authors, collected in patent publication US7910678B2, “Copolymers having 1-methyl-2-methoxyethyl moieties” (Abbott Laboratories, priority 2006, dated 2011).
Read-outs that look alike come from different tables or passages of the source.

System: mouse

| Structure (SMILES) | Oral-mouse LD50 (oral) | Oral-mouse LD50 (in vivo, po) |
| --- | --- | --- |
| COCC(C)O (stereo not shown) [1-methoxy-2-propanol] | 11700 mg/kg | – |
| CCOCCO [2-ethoxyethanol] | 2451 mg/kg | – |
| COCCO [2-methoxyethanol] | 2560 mg/kg | – |
| CCO [ethanol] | – | 3450 mg/kg |
